molecular target: T1, human recombinant Yes [a.a. 2–543 (end)] (Homo sapiens, UniProt P07947); test: ADP-Glo kinase assay, inhibition rates of Yes phosphorylation activity (first and second screening); format: biochemical; details: first screening; mean of n = 4 wells; 10 μmol L−1 compound
T1 construct: human recombinant Yes [a.a; 2–543 (end)]; purchased BPS Bioscience 40488
How it was run: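 ADP-Glo luminescence measured inhibition of human recombinant Yes (a.a. 2–543) phosphorylation activity. In the first screen, each compound ran in 4 wells and inhibition rates were averaged. The second screen retested hits as compounds dissolved from fresh powder.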

T1 sequence (P07947 2-543): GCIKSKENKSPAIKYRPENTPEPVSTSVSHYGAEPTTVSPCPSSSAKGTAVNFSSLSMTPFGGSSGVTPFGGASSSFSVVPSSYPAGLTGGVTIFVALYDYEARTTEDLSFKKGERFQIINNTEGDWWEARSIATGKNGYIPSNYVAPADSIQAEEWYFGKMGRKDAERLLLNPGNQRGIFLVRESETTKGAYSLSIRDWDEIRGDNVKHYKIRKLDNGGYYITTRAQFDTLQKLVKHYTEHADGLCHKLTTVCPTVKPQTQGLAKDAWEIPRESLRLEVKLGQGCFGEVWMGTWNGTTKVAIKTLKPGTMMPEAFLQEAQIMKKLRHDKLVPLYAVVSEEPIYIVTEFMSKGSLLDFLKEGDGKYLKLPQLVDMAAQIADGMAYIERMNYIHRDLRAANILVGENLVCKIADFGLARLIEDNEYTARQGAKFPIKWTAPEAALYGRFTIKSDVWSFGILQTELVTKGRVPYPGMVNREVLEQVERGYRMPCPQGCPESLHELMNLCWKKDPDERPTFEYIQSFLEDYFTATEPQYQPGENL

Going from N#Cc1cccc(C(=O)NCc2nc(-c3ccc(F)cc3)n[nH]2)c1 [Compound Z1137567528] to O=C(COc1ccccc1)NCc1nc2ccccc2[nH]1 [Compound Z26782031], the “First screening IR (inhibition rate)” value falls from 55% to -12%.

Compared with CC(=O)c1c[nH]c(C(=O)NCc2csc(-c3ccccc3)n2)c1 [Compound Z236994250], CCn1ncc2c(C(=O)NCc3cccc(OC)c3)cc(-c3ccccc3)nc21 [Compound Z224328394] is higher in “First screening IR (inhibition rate)” value: 4% for the first, 6% for the second.

First: Cc1ccnc(NCC2CCN(Cc3cccc(C(N)=O)c3)C2)c1 (centres unmarked) [Compound Z990550860]
Second: CCOCCCn1c(NC(=O)c2ccc3c(c2)CCN3C(C)=O)nc2ccccc21 [Compound Z1090594860]
The “First screening IR (inhibition rate)” value of the first is higher: -3% for the first, -9% for the second.

Compared with Cc1noc(C)c1CC(=O)NN=C(c1ccccc1)c1ccccc1 [Compound Z79575803], Cc1ccccc1/C=C1/CC(C)Cc2c1nc1ccccc1c2C(=O)O (centres unmarked) [Compound Z46107859] is higher in “First screening IR (inhibition rate)” value: -9% for the first, -3% for the second.

Compared with O=C(CN1CCN(S(=O)(=O)c2cccc(Cl)c2Cl)CC1)NC1CCCCCC1 [Compound Z46278335], CCS(=O)(=O)c1ccc(S(=O)(=O)N2CCCSCC2)cc1 [Compound Z736543988] is higher in “First screening IR (inhibition rate)” value: -12% for the first, 32% for the second.

Cc1cc(S(=O)(=O)N(C)CC(=O)N2CCC(O)CC2)cnc1Cl [Compound Z1591866613] and O=C(Nc1cccnc1)C1CCN(C(=O)c2ccc(C(F)(F)F)cc2)CC1 [Compound Z228734424] are the same in “First screening IR (inhibition rate)” value: -1% for the first, -1% for the second.

Going from COCCn1cnc2c1c(=O)n(CC(=O)NC(=O)NC1CCCCC1C)c(=O)n2Cc1ccccc1 (centres unmarked) [Compound Z24102979] to CCN(C(=O)CN1CCN(Cc2ccc3c(c2)OCO3)CC1)c1c(N)n(Cc2ccccc2)c(=O)[nH]c1=O [Compound Z46204583], the “First screening IR (inhibition rate)” value rises from -2% to 4%.

First: O=C(COC(=O)c1ccco1)Nc1nc2ccc([N+](=O)[O-])cc2s1 [Compound Z85929771]
Second: O=C(/C=C/c1ccco1)Nc1cc(-c2cccc([N+](=O)[O-])c2)sc1C(=O)O [Compound Z204341820]
The “First screening IR (inhibition rate)” value of the first is higher: 10% for the first, -3% for the second.

Going from N#Cc1ccccc1CSCCNC(=O)N1CCN(c2ncc(C(F)(F)F)cc2Cl)CC1 [Compound Z352490104] to Cc1sc2nc(CN3CCC(C)CC3)nc(N3CCN(C(=O)c4ccccc4F)CC3)c2c1C [Compound Z275104396], the “First screening IR (inhibition rate)” value rises from -2% to 0%.

First: Cc1cc(C)n(-c2cncc(NC(C)c3nnc4ccccn34)n2)n1 (centres unmarked) [Compound Z1343207103]
Second: Cc1cc(C)n(-c2ccc(Cl)c(C(=O)OCC(=O)c3ccc(F)c(F)c3)n2)n1 [Compound Z15431588]
The “First screening IR (inhibition rate)” value of the first is lower: 5% for the first, 20% for the second.

Compared with O=C(COc1ccc2ccccc2c1)Nc1nc2ccccc2[nH]1 [Compound Z27666510], COc1ccc(-n2cc(-c3ccccc3)c3c(=O)[nH]cnc32)cc1 [Compound Z295463532] is lower in “First screening IR (inhibition rate)” value: 8% for the first, -5% for the second.

Compared with CCn1cc(C(=O)c2cc(Cl)ccc2O)cc1-c1nc2ccccc2c(=O)[nH]1 [Compound Z135358570], NC(=S)c1cc(C(=O)c2ccccc2O)cn2c1nc1ccccc12 [Compound Z235467022] is lower in “First screening IR (inhibition rate)” value: 7% for the first, 5% for the second.

Compared with CC(NS(=O)(=O)c1ccc(C(C)(C)C)cc1)c1ccc(-n2ccnc2)cc1 (centres unmarked) [Compound Z45488256], O=C(OCc1ccc(-n2ccnc2)nc1)c1ccc([N+](=O)[O-])cc1 [Compound Z1352068858] is lower in “First screening IR (inhibition rate)” value: 12% for the first, 7% for the second.

First: Cc1ccc(-n2c(SCC(=O)c3cc(C)n(CC4CCCO4)c3C)nnc2N2CCOCC2)cc1 (centres unmarked) [Compound Z98369603]
Second: Cc1cccc(C)c1N=C1SC(C(=O)Nc2ccc(OC(F)F)cc2)C(N)=C1C(=O)N1CCN(C)CC1 (centres unmarked) [Compound Z56863426]
The “First screening IR (inhibition rate)” value of the first is higher: 22% for the first, 15% for the second.

Going from CN(C)S(=O)(=O)CCCS(=O)(=O)c1nccn1C [Compound Z1134191724] to CN(C)S(=O)(=O)CCCS(=O)(=O)Cc1ccc(Cl)cc1 [Compound Z1127660880], the “First screening IR (inhibition rate)” value falls from 22% to -4%.

First: Cc1[nH]c(=O)c(C#N)c(C)c1CCc1nc(-c2cc(Br)cs2)no1 [Compound Z1170101191]
Second: Cc1ccc(-c2cc(C(=O)OCc3nc(C(C)(C)C)no3)n[nH]2)s1 [Compound Z355654248]
The “First screening IR (inhibition rate)” value of the first is lower: 10% for the first, 12% for the second.

First: CN(C)C(CNC(=O)c1cc(-c2ccccc2)nc2c1cnn2Cc1ccncc1)c1ccccc1 (centres unmarked) [Compound Z116834630]
Second: COC(=O)/C(=C\C1=C2OC(c3ccccc3)=CC(c3ccccc3)=C2CCC1)C(C)=O [Compound Z56781644]
The “First screening IR (inhibition rate)” value of the first is lower: -16% for the first, 7% for the second.

Compared with O=C1Nc2cc(Cl)ccc2/C1=C\c1cnn(-c2ccccc2)c1 [Compound Z95046696], O=C1NC(c2ccc(OCc3cn4ccccc4n3)cc2)Nc2ccccc21 (centres unmarked) [Compound Z135163592] is higher in “First screening IR (inhibition rate)” value: 4% for the first, 6% for the second.

Compared with CC(=O)c1c(C)[nH]c(C(=O)NCCCn2cnc3ccccc32)c1C [Compound Z102448822], NC(=O)CCN(C(=O)CSc1ncc2ccccn12)c1ccccc1 [Compound Z166362686] is higher in “First screening IR (inhibition rate)” value: 20% for the first, 55% for the second.

Going from Cc1cc(S(=O)(=O)Nc2cc(-c3ccncc3)nn2C)ccc1Br [Compound Z1270579889] to Cc1ccc(Nc2nccc(C(F)(F)F)n2)cc1S(=O)(=O)N(C)C [Compound Z318799754], the “First screening IR (inhibition rate)” value falls from 54% to 6%.

Going from CN(C)S(=O)(=O)c1ccc(S(N)(=O)=O)cc1 [Compound Z45415603] to O=S1(=O)CC(S(=O)(=O)c2ccccc2)C(S(=O)(=O)c2ccccc2)C1 (centres unmarked) [Compound Z56757817], the “First screening IR (inhibition rate)” value rises from 11% to 15%.

Compared with Cc1cc(C)n(C(C)C(=O)Nc2ccc(NC(=O)C(C)(C)C)cc2Cl)n1 (centres unmarked) [Compound Z850607168], O=C(N/N=C/c1ccco1)c1cc(-c2ccc(Br)s2)[nH]n1 [Compound Z57393573] is lower in “First screening IR (inhibition rate)” value: 3% for the first, -9% for the second.

Going from Cc1noc(C)c1CSc1ncnc2sc3c(c12)CCC(C)C3 (centres unmarked) [Compound Z16316201] to CCn1ncc2c(C(=O)OCC#N)cc(-c3cccs3)nc21 [Compound Z227189870], the “First screening IR (inhibition rate)” value rises from -8% to 2%.

O=C1C(=O)N(CCCn2ccnc2)C(c2ccc(F)cc2)/C1=C(\O)c1ccc(Cl)cc1 (centres unmarked) [Compound Z57239976] was tested, and the “First screening IR (inhibition rate)” value was -5%.

Source: PMC5607274, “An iterative compound screening contest method for identifying target protein inhibitors using the tyrosine-protein kinase Yes” (Scientific Reports, 2017)
